Consider eight compounds from patent US10845371B2, “Soluble MANF in pancreatic beta-cell disorders” (University of Massachusetts, priority 2012, dated 2020).

Ends that are not written are not given here. Peptide text beside a SMILES is read from it. * marks the point of attachment. Cbz = O=C(OCc1ccccc1)*

Assay [1] concerns MEROS-GFP (ER redox state) in INS-1 832/13 cells. As to the kind of experiment: MEROS-GFP ratio by fluorescent plate reader in INS-1 832/13 cells. Format: cell-based, rat. Particulars: 30 minutes; H2O2 0.1 or 1 mM, DTT 0.1-10 mM, FIG. 12. As to the method: FIG. 12 is a graph of the MEROS-GFP ratio in INS-1 832/13 cells left untreated (no label), or treated with H2O2 (1 or 0.1 mM H2O2) or DTT (0.1, 0.2, 0.5, 1, 2, 5, or 10 mM DTT). The MEROS-GFP ratio was determined using a plate reader. The data shown are mean±S.D. (n=3).
The ratio between fluorescence from excitation 473 nm versus 394 nm normalized to wild-type untreated cells is called the MEROS-GFP ratio. The MEROS-GFP ratio was determined using a fluorescent plate reader. In these experiments, the INS-1 832/13 cells were plated onto a 96-well plate at 50,000 cells/well, the cells treated with H2O2 or DTT at various concentrations for 30 minutes, and the fluorescence at excitation wavelength 473 nm and emission wavelength 510 nm (for reduced MEROS-GFP) or at excitation wavelength 394 nm and emission wavelength 510 nm (for oxidized MEROS-GFP) was measured. The MEROS-GFP ratio was determined after substraction of background signal.

Assay [2] shares this test system. Kind of assay: MEROS-GFP ratio by flow cytometry in INS-1 832/13 cells. Format: cell-based, rat. Particulars: normalized to untreated; DTT 0.2-10 mM; 1 mM H2O2 30 min; TM 5 μM, TG 10 nM 24 h or 1 μM 4 h, BreA 100 ng/mL, MG132, palmitate 0.2-0.5 mM, hIAPP 10 μM, 24 h; FIGS. 17-24. As to the method:
FIG. 15 is fluorescence-assisted cell sorting (FACS) data of INS-1 832/13 cells stably-transfected with MEROS-GFP following no treatment or treatment with DTT (0.2, 0.5, or 10 mM DTT). The data was collected using excitation wavelengths of 488 nm and 405 nm, and an emission spectrum of 510 nm.
FIG. 16 is a histogram of FACS data of INS-1 832/13 cells stably-transfected with MEROS-GFP following no treatment or treatment with DTT (0.2 mM, 0.5 mM, or 10 mM DTT). The horizontal axis represents the MEROS-GFP ratio and the vertical axis represents the number of cells.
FIG. 17 is a graph of the median MEROS-GFP ratio in INS-1 832/13 cells stably-transfected with MEROS-GFP following no treatment or treatment with DTT (0.2, 0.5, or 10 mM DTT). The MEROS-GFP values shown are normalized to the untreated values.
FIG. 18 is two graphs showing data from FACS analysis of INS-1 832/13 cells stably-transfected with MEROS-GFP following no treatment or treatment with 1 mM H2O2 for 30 minutes. The right graph is a histogram of the MEROS-GFP ratio in INS-1 832/13 cells not treated or treated with 1 mM H202.
FIG. 19 is a graph of the median MEROS-GFP ratio calculated in INS-1 832/13 cells using FACS analysis following no treatment or treatment with tunicamycin (TM) (5 μM; 24 hours), thapsigargin (TG) (10 nM; 24 hours), TG (1 μM; 4 hours), brefeldin A (BreA) (100 ng/mL; 24 hours), or MG132 ([…]; 24 hours). […] The data are normalized to the median MEROS-GFP ratio calculated for the untreated cells.
The error bars represent ±S.D. The data are normalized to the median MEROS-GFP ratio calculated for the untreated cells.
FIG. 24 is a graph of the median MEROS-GFP ratio in INS-1 832/13 cells left untreated or treatment with human islet amyloid polypeptide (IAPP) (10 μM; 24 hours), mouse IAPP (10 μM; 24 hours), or cytokines ([…] (5 ng/mL), INFγ (100 ng/mL), and TNFα (25 ng/mL); 24 hours)). The error bars represent ±S.D. The data are normalized to the median MEROS-GFP ratio calculated for the untreated cells.
Flow cytometry was used to precisely monitor the MEROS-GFP ratio in vivo.
Experiments were performed to study the relationship between the UPR and the heterogeneity of the redox state. In these experiments, both the redox state and the activation levels of the UPR were monitored in the same cells. To achieve this, a UPR reporter gene encoding the red fluorescent protein, mCherry, driven by the human BiP promoter was constructed. […] This BiP-mCherry reporter plasmid was transfected into INS-1 832/13 cells expressing MEROS-GFP, and FACS analysis was used to monitor the MEROS-GFP ratio and the activation levels of the UPR via BiP-mCherry in the same cells (FIG. 31). The activation levels of BiP-mCherry and the MEROS-GFP ratio were monitored following the induction of ER stress. In these experiments, INS-1 832/13 cells expressing MEROS-GFP were plated onto 6-well plates, treated with each compound for indicated times, and then harvested by trypsinization. After washing with phosphate buffered saline, cells were resuspended in the 11 mM glucose-Hanks buffered salt solution. Flow cytometry analyses were performed with LSRII (BD).
On the technique in general: Flow cytometry measures light scatter and fluorescence of single cells or particles in a stream.

For the next assay, the system named is INS-1 832/13 cells. As to the kind of experiment: Percentage of reduced cells (MEROS-GFP ratio >2) by flow cytometry after fatty acids. The format is cell-based, rat. Particulars: 0.5 mM palmitate plus 0.5 mM oleic or linoleic acid, 24 hours, FIG. 30. From the text:
The y-axis represents fluorescence following excitation using 488 nm and the x-axis represents fluorescence following excitation using 405 nm.
The data for cells treated with palmitate is shifted to the right.
The error bars indicate ±standard deviation (**p<0.01).

Assay [3] concerns MANF. Kind of assay: MANF protein (immunoblot) and mRNA (real-time PCR) in INS-1 832/13 cells treated with ER stress inducers. The format is cell-based, rat. Particulars: 24 hours; for MANF mRNA levels: 5 μM tunicamycin or 20 nM thapsigargin, FIG. 2. As to the method: FIG. 1 is an immunoblot showing the levels of MANF protein in concentrated medium from a culture of a rat pancreatic β-cell line (INS-1 832/13) or in lysate from the rat pancreatic β-cell line (INS-1 832/13) after no treatment or treatment with thapsigargin (50 nM) or tunicamycin (0.5 μg/mL) for 24 hours.
FIG. 2 is a graph showing the relative expression of MANF mRNA in a rat pancreatic β-cell line (INS-1 832/13) cultured under the following conditions: 11 mM glucose (24 hours); 25 mM glucose (24 hours); 25 mM glucose (48 hours); 25 mM glucose (72 hours); 11 mM glucose and 5 μM tunicamycin (TM) (24 hours); or 11 mM glucose and 20 nM thapsigargin (Tg) (24 hours). The data shown were generated using quantitative real-time PCR (n=3, S.D.).
(§1) Experiments were performed to determine if expression of soluble MANF is induced in pancreatic β-cells in response to endoplasmic reticulum stress. These experiments were performed using rodent pancreatic β-cell lines (INS-1 832/13 and MIN6), primary mouse and human islets, and two different chemical agents that induce endoplasmic reticulum stress (thapsigargin and tunicamycin). INS-1 832/13 cells were cultured in RPMI-1640 containing 10% fetal bovine serum, penicillin, streptomycin, sodium pyruvate, and 0.1% β-mercaptoethanol. Primary islets were obtained from Prodo, and plated into 6-well plates precoated with laminin V produced by 804G cells, and cultured in CMRL medium supplemented with fetal bovine serum, non-essential amino acids, sodium pyruvate, and antibiotics.
On the technique in general: A western blot detects proteins with antibodies after separation by electrophoresis.

For assay [4], the system named is MANF. Kind of assay: MANF mRNA in mouse primary islets treated with thapsigargin (real-time PCR). The format is cell-based. Particulars: 0.5 μM thapsigargin, 6 hours, FIG. 3. As to the method: FIG. 3 is a graph showing the relative expression of MANF, WFS1, TXNIP, and CHOP mRNA in mouse primary islets cultured five days with 5 mM glucose (LG), 11 mM glucose (MG), or 25 mM glucose (HG), or five days with 5 mM glucose (LG) and 6 hours with 0.5 μM thapsigargin (TG). The data shown were generated using quantitative real-time PCR (n=3; S.D.).
as §1
(§2) A second set of experiments were performed using human primary islets from two human donors.
On the technique in general: Quantitative PCR measures a nucleic acid by following its amplification.

The subject of assay [5] is MANF. As to the kind of experiment: MANF mRNA and soluble MANF protein in human primary islets treated with thapsigargin. The note with it: thapsigargin 0.25 μM, 24 hours. The format is cell-based. The method, then: The data shown were generated using quantitative real-time PCR (n=3; S.D.).
In this experiment, human MANF was immunoprecipitated using a rabbit anti-human MANF antibody (Proteintech), and the same antibody was used to develop the immunoblot.
as §1, §2

`OO` [H2O2]: the “MEROS-GFP ratio (plate reader)” value in assay [1] is “did not change the MEROS-GFP ratio”. Besides, the “Median MEROS-GFP ratio (FACS)” value in assay [2] is reported as “did not change the MEROS-GFP ratio”.

As to `CC(C)C[C@@H](C=O)NC(=O)[C@H](CC(C)C)NC(=O)[C@H](CC(C)C)NC(=O)OCc1ccccc1` [MG 132] (Cbz-Leu-Leu-Leu-aldehyde), in assay [2], the “Median MEROS-GFP ratio (FACS)” value is “increased”.

As for `C[C@H]1CCC/C=C/[C@@H]2C[C@H](O)C[C@H]2[C@H](O)/C=C/C(=O)O1` [brefeldin A], the “Median MEROS-GFP ratio (FACS)” value in assay [2] is “increased”.

With `CCCCC/C=C\C/C=C\CCCCCCCC(=O)O` [linoleic acid], the “Palmitate-induced reduced ER (percentage of reduced cells)” value with INS-1 832/13 cells was “significantly suppressed the ability of palmitate to create a reduced ER”.

`CCCCCCCC/C=C\CCCCCCCC(=O)O` [oleic acid]: in the assay with INS-1 832/13 cells, the “Palmitate-induced reduced ER (percentage of reduced cells)” value is “significantly suppressed the ability of palmitate to create a reduced ER”.

For `C/C=C(/C)C(=O)O[C@H]1C(C)=C2[C@H]([C@@H]1OC(=O)CCCCCCC)[C@@](C)(OC(C)=O)C[C@H](OC(=O)CCC)[C@@]1(O)[C@H]2OC(=O)[C@@]1(C)O` [thapsigargin], the “MANF mRNA levels” value in the assay with MANF [3] is recorded as “Elevated levels of MANF mRNA”. The “Soluble MANF protein in the medium” value with MANF [3] (thapsigargin 50 nM, FIG. 1) is on record as “detected in the medium”. Further, the “MANF mRNA expression” value is listed as “significant increase in MANF mRNA expression” in the assay on MANF [4] and “significant increase in MANF mRNA expression” in the assay with MANF [5] (two donors, FIG. 4). For the same compound, the “Soluble MANF protein in the extracellular medium” value in the assay with MANF [5] (FIGS. 5 and 6) was “production and release of soluble MANF protein into the extracellular medium”. Moreover, the “Median MEROS-GFP ratio (FACS)” value in assay [2] is recorded as “increased”.

Regarding “human islet amyloid polypeptide (hIAPP): human islet amyloid polypeptide, physiological inducer of ER stress (KCNTATCATQRLANFLVHSSNNFGAILSSTNVGSNTY; not fully specified (C-terminus, bridges); cysteine pairing not given here; UniProt P10997 34-70, looked up)”, the “Median MEROS-GFP ratio (FACS)” value in assay [2] was “increased”.

Consider tunicamycin, for which, in the assay on MANF [3], the “MANF mRNA levels” value is on record as “Elevated levels of MANF mRNA”. For the same compound, the “Median MEROS-GFP ratio (FACS)” value in assay [2] is given as “increased”.
